Source: article PMC7594079, “Insights into the Function and Evolution of Taste 1 Receptor Gene Family in the Carnivore Fish Gilthead Seabream (Sparus aurata)” (International Journal of Molecular Sciences, 2020)

These molecules were tested against T1, saT1R2a/R3 (Sparus aurata, UniProt A0A671TK95+A0A671VZB3) (assay: saT1R2a/R3 heterodimer transiently transfected in stable pGL3-NFAT-luc-HEK293 (Cl.3) cells, luciferase reporter). Details: as molarity; decimal comma.
T1 sequence (A0A671TK95 20-825): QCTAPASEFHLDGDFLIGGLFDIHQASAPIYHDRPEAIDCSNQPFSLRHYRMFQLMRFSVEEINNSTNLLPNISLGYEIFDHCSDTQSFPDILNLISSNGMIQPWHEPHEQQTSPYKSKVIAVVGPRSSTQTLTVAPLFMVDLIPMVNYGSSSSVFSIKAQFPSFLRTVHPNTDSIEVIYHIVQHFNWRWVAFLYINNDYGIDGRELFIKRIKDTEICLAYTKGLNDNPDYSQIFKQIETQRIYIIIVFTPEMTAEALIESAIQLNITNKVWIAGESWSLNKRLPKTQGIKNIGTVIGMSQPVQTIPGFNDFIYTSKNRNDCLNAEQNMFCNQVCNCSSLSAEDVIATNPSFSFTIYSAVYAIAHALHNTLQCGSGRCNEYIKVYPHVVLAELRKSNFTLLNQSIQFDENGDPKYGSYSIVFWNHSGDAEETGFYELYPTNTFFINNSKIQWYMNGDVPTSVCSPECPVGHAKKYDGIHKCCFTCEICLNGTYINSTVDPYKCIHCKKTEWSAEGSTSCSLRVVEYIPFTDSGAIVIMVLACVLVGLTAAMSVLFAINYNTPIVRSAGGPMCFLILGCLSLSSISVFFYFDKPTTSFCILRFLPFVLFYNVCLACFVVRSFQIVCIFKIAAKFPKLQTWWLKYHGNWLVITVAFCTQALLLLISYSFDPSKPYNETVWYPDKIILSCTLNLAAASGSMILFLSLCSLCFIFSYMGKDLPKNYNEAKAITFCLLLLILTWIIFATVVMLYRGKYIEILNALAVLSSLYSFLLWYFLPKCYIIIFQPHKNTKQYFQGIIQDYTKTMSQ
T1 sequence (A0A671VZB3 24-860): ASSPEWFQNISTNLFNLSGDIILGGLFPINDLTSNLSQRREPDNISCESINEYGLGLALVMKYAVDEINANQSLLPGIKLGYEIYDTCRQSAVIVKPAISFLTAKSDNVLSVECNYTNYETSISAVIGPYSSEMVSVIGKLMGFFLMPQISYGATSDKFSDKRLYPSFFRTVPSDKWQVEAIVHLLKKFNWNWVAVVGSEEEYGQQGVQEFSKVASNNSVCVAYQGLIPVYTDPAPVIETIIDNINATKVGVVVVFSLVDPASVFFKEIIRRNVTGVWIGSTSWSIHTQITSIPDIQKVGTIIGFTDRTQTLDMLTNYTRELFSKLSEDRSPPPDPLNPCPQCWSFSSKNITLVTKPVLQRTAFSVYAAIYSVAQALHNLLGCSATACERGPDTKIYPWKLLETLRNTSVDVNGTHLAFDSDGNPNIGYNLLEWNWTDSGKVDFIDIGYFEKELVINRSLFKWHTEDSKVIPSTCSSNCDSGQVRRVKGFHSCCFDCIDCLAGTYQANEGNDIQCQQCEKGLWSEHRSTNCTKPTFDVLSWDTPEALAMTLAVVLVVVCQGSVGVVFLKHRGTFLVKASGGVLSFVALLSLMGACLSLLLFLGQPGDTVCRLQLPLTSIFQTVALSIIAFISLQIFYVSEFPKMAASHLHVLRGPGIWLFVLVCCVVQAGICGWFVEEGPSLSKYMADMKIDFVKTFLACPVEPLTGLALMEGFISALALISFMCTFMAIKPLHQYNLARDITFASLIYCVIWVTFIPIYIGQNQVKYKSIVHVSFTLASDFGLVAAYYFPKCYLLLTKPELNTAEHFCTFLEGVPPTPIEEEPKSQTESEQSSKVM
Assay type: cell-based
Excerpt: Figure 6 Amino acid Log-dose response curves of activation in heterologous co-transfected (Cl.3) cells with saT1R1/3 (green dots), saT1R2a/3 (red squares) and saT1R2b/3 (black triangles) heterodimers. Evaluation of L-AA responses was based on the RLU mean ± SEM of four independent determinations normalized to the mean response of the same transfections stimulated with reduced assay medium (Basal Medium Eagle w/o L-glutamate (BME) + 1% FBS), and expressed as the percentage relative to basal levels (BL).
HEK293 cells were cultured in standard medium DMEM (Gibco, Thermo Fisher, Saint Louis, MO, USA) containing 10% FBS, penicillin (100 U/mL) and streptomycin ([…]) at 37 °C, with a humidified atmosphere at 5% CO2. pGL3-NFAT-luc-HEK293 stable clones were generated by co-transfections of pGL3-NFAT-luc and tgCMV/HyTK plasmids (50:1), the latter harboring the hygromycin phosphotransferase gene, using Lipofectamine LTX according to supplier’s protocols (Thermo Fisher, Saint Louis, MO, USA). Initially, HEK293 cells were selected using DMEM containing 400 μg/mL hygromycin B (Sigma, Darmstadt, Germany) in 24-well plates for two weeks; 24 colonies were further grown out in 96-well plates under reduced hygromycin selection (200 µg/mL) for three weeks. Potentially resistant NFAT-luc-HEK293 clones (n = 22) were validated after incubation in assay medium (DMEM + 1% FBS) containing PMA or Ionomycin (Sigma, Darmstadt, Germany) for 18 h (triplicates, 50,000 cells/well). Luciferase activity was quantified with ONE-Glo™ EX Reagent Kit (Promega, Madison, WI, USA) using a 96-microplate TECAN reader (Trading AG, Switzerland).
saT1Rs (saT1R1, saT1R2a, saT1R2b saT1R3) and saGαi1-2 genes were RT-PCR amplified using 5’ and 3’ flanking primers carrying HindIII and XhoI restriction sites, respectively. Gel-purified fragments were cloned into pGEM-T Easy vectors, re-sequenced, digested and subcloned into pcDNA™3 (Invitrogen, Carlsbad, CA, USA). Effective saT1R cloning into pcDNA™3 was further verified by HindIII/XhoI digestion. Transient co-transfections were done in 6-well plates (confluence ~70–80%) using 100 μL of reduced serum medium (Opti-MEM, Gibco, Thermo Fisher, Saint Louis, MO, USA) containing 150 ng of each selected pcDNA™3 construct, 1:10 charge ratio of Enhanced Green Fluorescent expressing construct (EGFP; positive control), and pBluescript II SK (+) vector DNA (Addgene, Watertown, MA, USA) up to 1 µg of totally transfected DNA. Following 24 h incubation, cells were washed with fresh standard medium and plated in polylysine treated plates for additional 24 h. Cells were then stimulated with L-AAs and sugar compounds for 18 h in a reduced assay medium (BME w/o L-glutamate; Gibco, Thermo Fisher, Saint Louis, MO, USA) + 1% FBS), to prevent unspecific Ca^2+/NFAT signaling activation and potential saT1R desensitization. All L-AAs and sugars used for in vitro experiments were obtained from Merck KGaA (Darmstadt, Germany).

Q: Which “T1R2a/R3 [MSD] maximum stimulation dose” value does the source give for `C[C@H](N)C(=O)O` [Ala, Alanine] here?
A: 1,00 × 10^-1 M

Q: With `N=C(N)NCCC[C@H](N)C(=O)O` [Arg, Arginine] as the molecule, how does the “T1R2a/R3 [MSD] maximum stimulation dose” value read?
A: 1,00 × 10^-5 M

Q: With `NC(=O)C[C@H](N)C(=O)O` [Asn, Asparagine] as the molecule, how does the “T1R2a/R3 [MSD] maximum stimulation dose” value read?
A: 1,00 × 10^-1 M

Q: With `N[C@@H](CC(=O)O)C(=O)O` [Asp, Aspartic acid] as the molecule, how does the “T1R2a/R3 [MSD] maximum stimulation dose” value read?
A: 1,00 × 10^-5 M

Q: Which “T1R2a/R3 [MSD] maximum stimulation dose” value does the source give for `N[C@@H](CS)C(=O)O` [Cys, Cysteine] here?
A: 1,00 × 10^-4 M

Q: Which “T1R2a/R3 [MSD] maximum stimulation dose” value does the source give for `NC(=O)CC[C@H](N)C(=O)O` [Gln, Glutamine] here?
A: 1,00 × 10^-1 M

Q: How did the “T1R2a/R3 [MSD] maximum stimulation dose” value turn out when `N[C@@H](CCC(=O)O)C(=O)O` [Glu, Glutamic acid] was run?
A: 1,00 × 10^-2 M

Q: `NCC(=O)O` [Gly, Glycine] was tested. Which “T1R2a/R3 [MSD] maximum stimulation dose” value did it give?
A: 1,00 × 10^-1 M

Q: `N[C@@H](Cc1c[nH]cn1)C(=O)O` [His, Histidine] was tested. Which “T1R2a/R3 [MSD] maximum stimulation dose” value did it give?
A: 1,00 × 10^-5 M

Q: For `CC[C@H](C)[C@H](N)C(=O)O` [Ile, Isoleucine], which “T1R2a/R3 [MSD] maximum stimulation dose” value is on record?
A: 1,00 × 10^-1 M

Q: Which “T1R2a/R3 [MSD] maximum stimulation dose” value does the source give for `CC(C)C[C@H](N)C(=O)O` [Leu, Leucine] here?
A: 1,00 × 10^-1 M

Q: How did the “T1R2a/R3 [MSD] maximum stimulation dose” value turn out when `NCCCC[C@H](N)C(=O)O` [Lys, Lysine] was run?
A: 1,00 × 10^-3 M

Q: With `CSCC[C@H](N)C(=O)O` [Met, Methionine] as the molecule, how does the “T1R2a/R3 [MSD] maximum stimulation dose” value read?
A: 1,00 × 10^-1 M

Q: For `N[C@@H](Cc1ccccc1)C(=O)O` [Phe, Phenylalanine], which “T1R2a/R3 [MSD] maximum stimulation dose” value is on record?
A: 1,00 × 10^-2 M

Q: How did the “T1R2a/R3 [MSD] maximum stimulation dose” value turn out when `O=C(O)[C@@H]1CCCN1` [Pro, Proline] was run?
A: 1,00 × 10^-1 M

Q: With `N[C@@H](CO)C(=O)O` [Ser, Serine] as the molecule, how does the “T1R2a/R3 [MSD] maximum stimulation dose” value read?
A: 1,00 × 10^-1 M

Q: For `C[C@@H](O)[C@H](N)C(=O)O` [Thr, Threonine], which “T1R2a/R3 [MSD] maximum stimulation dose” value is on record?
A: 1,00 × 10^-1 M

Q: For `N[C@@H](Cc1c[nH]c2ccccc12)C(=O)O` [Trp, Tryptophan], which “T1R2a/R3 [MSD] maximum stimulation dose” value is on record?
A: 1,00 × 10^-3 M

Q: With `N[C@@H](Cc1ccc(O)cc1)C(=O)O` [Tyr, Tyrosine] as the molecule, how does the “T1R2a/R3 [MSD] maximum stimulation dose” value read?
A: 1,00 × 10^-3 M

Q: Which “T1R2a/R3 [MSD] maximum stimulation dose” value does the source give for `CC(C)[C@H](N)C(=O)O` [Val, Valine] here?
A: 1,00 × 10^-1 M

Same assay, conditions: saT1R2a/R3; tested 1–500 mM

Q: `OC[C@H]1OC(O)[C@H](O)[C@@H](O)[C@@H]1O` (stereo partly drawn) [D-Glucose] was tested. Which “concentration with significant activation” value did it give?
A: 200 mM
